According to patent publication US10947188B2, “Small molecule ferroptosis inducers” (THE TRUSTEES OF COLUMBIA UNIVERSITY IN THE CITY OF NEW YORK, priority 2016, dated 2021):

How the values were obtained:
BJeLR = assay: Modulatory profiling: Alamar Blue viability, lethal compound cotreated with death modulator (EC50, AUC); format: cell-based, human; parameters: AUC, modulator BJ.Gd3+ / AUC, modulator BJ.LNAME / AUC, modulator BJ.Lmin / AUC, modulator BJ.3MA / AUC, modulator BJ.ALLN / AUC, modulator BJ.Boc D / AUC, modulator BJ.CHX / AUC, modulator BJ.Co2+ / AUC, modulator BJ.Nec-1 / AUC, modulator BJ.Pepstatin / AUC, modulator BJ.TLCK / AUC, modulator BJ.atoc / AUC, modulator BJ.trolox / AUC, modulator BJ.zVAD: unit not given beside the values; conditions: BJeLR cells, modulatory profile value (AUC); for AUC, modulator BJ.3MA: lethal compound cotreated with modulator 3MA; for AUC, modulator BJ.ALLN: lethal compound cotreated with modulator ALLN; for AUC, modulator BJ.Boc D: lethal compound cotreated with modulator Boc D; for AUC, modulator BJ.CHX: lethal compound cotreated with modulator CHX; for AUC, modulator BJ.Co2+: lethal compound cotreated with modulator Co2+; for AUC, modulator BJ.DPQ: lethal compound cotreated with modulator DPQ; for AUC, modulator BJ.Gd3+: lethal compound cotreated with modulator Gd3+; for AUC, modulator BJ.LNAME: lethal compound cotreated with modulator LNAME; for AUC, modulator BJ.Lmin/NAD+: lethal compound cotreated with modulator Lmin/NAD+; for AUC, modulator BJ.Lmin: lethal compound cotreated with modulator Lmin; for AUC, modulator BJ.NAD+: lethal compound cotreated with modulator NAD+; for AUC, modulator BJ.NMMA: lethal compound cotreated with modulator NMMA; for AUC, modulator BJ.Nec-1: lethal compound cotreated with modulator Nec-1; for AUC, modulator BJ.Pepstatin: lethal compound cotreated with modulator Pepstatin; for AUC, modulator BJ.TLCK: lethal compound cotreated with modulator TLCK; as to AUC, modulator BJ.3MA: reference of the scale not given here; as to AUC, modulator BJ.ALLN: reference of the scale not given here; as to AUC, modulator BJ.Boc D: reference of the scale not given here; as to AUC, modulator BJ.CHX: reference of the scale not given here; as to AUC, modulator BJ.Co2+: reference of the scale not given here; as to AUC, modulator BJ.DPQ: reference of the scale not given here; as to AUC, modulator BJ.Gd3+: reference of the scale not given here; as to AUC, modulator BJ.LNAME: reference of the scale not given here; as to AUC, modulator BJ.NAD+: reference of the scale not given here; as to AUC, modulator BJ.NMMA: reference of the scale not given here; as to AUC, modulator BJ.Nec-1: reference of the scale not given here; as to AUC, modulator BJ.Pepstatin: reference of the scale not given here; as to AUC, modulator BJ.TLCK: reference of the scale not given here
HT-1080 = assay: as above; format: cell-based; parameters: AUC, modulator HT.3MA / AUC, modulator HT.ALLN / AUC HT.ATA / AUC HT.ActD / AUC HT.BHA / AUC HT.BHT / AUC HT.BocD / AUC HT.CHX / AUC HT.Co2+ / AUC HT.DPQ / AUC HT.EGTA / AUC HT.Lmim / AUC HT.NAD+ / AUC HT.Nec-1 / AUC HT.SP600125 / AUC HT.TLCK / AUC HT.U0126: unit not given beside the values; conditions: for AUC HT.ATA: HT-1080, modulator ATA; for AUC HT.ActD: HT-1080, modulator ActD; for AUC HT.BHA: HT-1080, modulator BHA; for AUC HT.BHT: HT-1080, modulator BHT; for AUC HT.BocD: HT-1080, modulator BocD; for AUC HT.CHX: HT-1080, modulator CHX; for AUC HT.Co2+: HT-1080, modulator Co2+; for AUC HT.CspA: HT-1080, modulator CspA; for AUC HT.DPQ: HT-1080, modulator DPQ; for AUC HT.EGTA: HT-1080, modulator EGTA; for AUC HT.Gd3+: HT-1080, modulator Gd3+; for AUC HT.LNAME: HT-1080, modulator LNAME; for AUC HT.Lmim: HT-1080, modulator Lmim; for AUC HT.NAD+: HT-1080, modulator NAD+; for AUC HT.NMMA: HT-1080, modulator NMMA; for HT.atoc (AUC) / HT.bCarotene (AUC) / HT.deferox (AUC) / HT.digoxin (AUC) / HT.trolox (AUC) / HT.zVAD (AUC): HT-1080; for HT.atoc (AUC): modulator atoc; for HT.bCarotene (AUC): modulator bCarotene; for HT.deferox (AUC): modulator deferox; for HT.digoxin (AUC): modulator digoxin; for HT.trolox (AUC): modulator trolox; for HT.zVAD (AUC): modulator zVAD; as to AUC HT.BHA: reference of the scale not given here; as to AUC HT.EGTA: reference of the scale not given here

Row | SMILES | AUC, modulator BJ.3MA (BJeLR) | AUC, modulator BJ.ALLN (BJeLR) | AUC, modulator BJ.Boc D (BJeLR) | AUC, modulator BJ.CHX (BJeLR) | AUC, modulator BJ.Co2+ (BJeLR) | AUC, modulator BJ.DPQ (BJeLR) | AUC, modulator BJ.Gd3+ (BJeLR) | AUC, modulator BJ.LNAME (BJeLR) | AUC, modulator BJ.Lmin/NAD+ (BJeLR) | AUC, modulator BJ.Lmin (BJeLR) | AUC, modulator BJ.NAD+ (BJeLR) | AUC, modulator BJ.NMMA (BJeLR) | AUC, modulator BJ.Nec-1 (BJeLR) | AUC, modulator BJ.Pepstatin (BJeLR) | AUC, modulator BJ.TLCK (BJeLR) | AUC HT.ATA (HT-1080) | AUC HT.ActD (HT-1080) | AUC HT.BHA (HT-1080) | AUC HT.BHT (HT-1080) | AUC HT.BocD (HT-1080) | other results
1 | [O-][N+]1=c2ccc(Nc3ccccc3)cc2=NC12CCCCC2 [CIL66] | 0.04168 | 0.08747 | −0.03146 | 0.08369 | −0.03141 | −0.007284 | −0.003838 | 0.02705 | 0.06444 | −0.05195 | −0.0264 | −0.02558 | 0.03694 | 0.04469 | −0.07935 | 0.02652 | −0.03277 | −0.02085 | −0.1542 | −0.05788 | AUC HT.CHX (HT-1080): 0.08144; AUC HT.Co2+ (HT-1080): −0.06034; AUC HT.CspA (HT-1080): −0.05469; AUC HT.DPQ (HT-1080): −0.01105; AUC HT.EGTA (HT-1080): 0.03093; AUC HT.Gd3+ (HT-1080): −0.01757; AUC HT.LNAME (HT-1080): 0.004035; AUC HT.Lmim (HT-1080): 0.01652; AUC HT.NAD+ (HT-1080): −0.01106; AUC HT.NMMA (HT-1080): −0.01421; HT.atoc (AUC) (HT-1080): 0.05045; HT.bCarotene (AUC) (HT-1080): 0.03186; HT.deferox (AUC) (HT-1080): 0.1299; HT.digoxin (AUC) (HT-1080): −0.05456; HT.trolox (AUC) (HT-1080): −0.03334; HT.zVAD (AUC) (HT-1080): 0.01629
2 | COc1ccc(C(=O)C(CN2CCCC2)c2ccccc2)cc1 (stereo not drawn) [CIL72] | 0.01714 | 0.00459 | 0.02672 | 0.2585 | 0.1176 | −0.01087 | 0.03013 | 0.001053 | 0.07102 | 0.004844 | −0.0366 | 0.01422 | −0.02464 | 0.01988 | 0.03641 | 0.05533 | 0.02924 | −0.04013 | −0.1002 | −0.02415 | AUC HT.CHX (HT-1080): 0.1147; AUC HT.Co2+ (HT-1080): 0.1163; AUC HT.CspA (HT-1080): −0.01912; AUC HT.DPQ (HT-1080): −0.03157; AUC HT.EGTA (HT-1080): 0.009608; AUC HT.Gd3+ (HT-1080): −9.532E−05; AUC HT.LNAME (HT-1080): 0.01226; AUC HT.Lmim (HT-1080): −0.001821; AUC HT.NAD+ (HT-1080): 0.004195; AUC HT.NMMA (HT-1080): −0.004443; HT.atoc (AUC) (HT-1080): −0.02111; HT.bCarotene (AUC) (HT-1080): −0.01233; HT.deferox (AUC) (HT-1080): 0.1972; HT.digoxin (AUC) (HT-1080): −0.01413; HT.trolox (AUC) (HT-1080): −0.03591; HT.zVAD (AUC) (HT-1080): 0.05314
3 | C[C@H]1CCC[C@]2(C)C[C@H]3OC(=O)[C@H](CN4CCCC4)[C@H]3C=C12 [CIL80] | 0.00654 | −0.004769 | 0.008783 | 0.1351 | 0.09506 | −0.03368 | 0.01802 | 0.02901 | 0.09271 | 0.01639 | −0.008515 | −3.885E−05 | −0.01593 | 0.03142 | −0.006094 | 0.05781 | 0.08002 | 0.009452 | −0.01971 | −0.02337 | AUC HT.CHX (HT-1080): 0.09741; AUC HT.Co2+ (HT-1080): 0.112; AUC HT.CspA (HT-1080): 0.01161; AUC HT.DPQ (HT-1080): −0.01717; AUC HT.EGTA (HT-1080): 0.0199; AUC HT.Gd3+ (HT-1080): −0.03226; AUC HT.LNAME (HT-1080): 0.01972; AUC HT.Lmim (HT-1080): 0.05449; AUC HT.NAD+ (HT-1080): 0.01251; AUC HT.NMMA (HT-1080): −0.01256; HT.atoc (AUC) (HT-1080): 0.004877; HT.bCarotene (AUC) (HT-1080): 0.003874; HT.deferox (AUC) (HT-1080): 0.1672; HT.digoxin (AUC) (HT-1080): 0.06493; HT.trolox (AUC) (HT-1080): −0.01954; HT.zVAD (AUC) (HT-1080): 0.03135
